Laboratory results taken from patent EP0336800A1, “Methods and kit for determining sulfamethazine in animal fluids or feed” (IDETEK, INC., priority 1988, dated 1989).
Where “and” joins values, the source holds several entries; their conditions need not be identical. Equal entries are not always repeated.

System: anti-sulfamethazine antibody
Assay: Competitive direct enzyme immunoassay (EIA) with immobilized anti-sulfamethazine antibody and sulfamethazine-HRP conjugate
Assay type: binding, New Zealand female white rabbits
Conditions: for % Cross-Reactivity: (nM of sulfamethazine for 50% binding/nM sulfa analogue for 50% binding) x 100; for % Binding Mean: quadruplicate on 14 different days
Experimental: Each well of the microtiter plate was filled with 200 µL solution of r-Protein A (2 µg/mL in l0 mM PBS, pH 7.2). These strips were sealed and incubated at 4°C for 5 hours. The r-Protein A solution was aspirated and the wells were washed 5 times with saline-Tween (0.9 percent NaCl containing 0.05 percent Tween-20). Each well was then incubated with 300µL solution of 0.l percent casein in 20 mM PBS, pH 7.2, at 37°C for 30 min and washed as described above. Each well was then filled with 200µL of antibody solution (l2.5 µg/mL in 50 mM carbonate-bicarbonate buffer, pH 9.6) and incubated at 4°C overnight (l5-20 hours). The solution was aspirated and the wells air-dried at room temperature for 2-3 hours. The antibody immobilized microtiter wells thus prepared were stored in ziplock bags at 4°C.
The enzyme conjugate (sulfamethazine-HRP) was appropriately diluted (generally l:l000) with 20 mM PBS, pH 7.2, containing 0.0l percent casein (w/v) and mixed with standards or samples in l0:l ratio. The mixture was transferred to wells ([…]) and incubated at 37°C for l hour. The wells were washed five times with 20 mM PBS, pH 7.2, containing 0.05 percent Tween-20 (v/v). Each well was then filled with l00 µL of ABTS substrate solution (combine l:l (v/v) lmM ABTS, 0.lM citrate, pH 4.0, and 0.0l% thimerosal with 0.0l% H₂O₂, and 0.0l% thimerosal) and incubated at 37°C for about 20 min for color (bluish-green) development. The color development was stopped with l00 µL of l percent SDS solution (w/v). Absorbance of the color was monitored at 405 nm in an EIA plate reader. Percent binding was calculated from the absorbance contained in the absence (B′) and presence (B) of sulfamethazine in standards/samples as follows: % binding = (B/B′) x l00.
A standard curve was prepared by plotting log sulfamethazine concentration vs. percent binding. The content of sulfamethazine in an unknown sample was determined from the standard curve.

Row | Compound | % Cross-Reactivity | further results
1 | Nc1ccc(S(=O)(=O)Nc2ccc(Cl)nn2)cc1 [Sulfachloropyridazine] | 0.0% | 
2 | COc1ccc(NS(=O)(=O)c2ccc(N)cc2)nn1 [Sulfamethoxypyridazine] | 0.0% | 
3 | [H]/N=C(/N)NS(=O)(=O)c1ccc(N)cc1 [Sulfaguanidine] | 0.0% | 
4 | Cc1cc(C)nc(N)n1 [2-Amino-4,6-Dimethylpyrimidine] | 0.07% | 
5 | Nc1ccc(S(=O)(=O)Nc2ccc3cn[nH]c3c2)cc1 [N′-(6-Indazolyl) sulfanilamine] | 0.0% | 
6 | Cc1cc(NS(=O)(=O)c2ccc(N)cc2)no1 [Sulfamethoxazole] | 0.0% | 
7 | Cc1cc(NS(=O)(=O)c2ccc(N)cc2)nc(C)n1 [Sulfisomidine] | 0.0% | 
8 | NS(N)(=O)=O [Sulfamide] | 0.0% | 
9 | Nc1ccc(S(=O)(=O)Nc2ccccn2)cc1 [Sulfapyridine] | 0.0% | 
10 | Nc1ccc(S(=O)(=O)Nc2cnc3ccccc3n2)cc1 [Sulfaquinoxaline] | 0.0% | 
11 | Cc1cc(C(C)(C)C)c(O)c(C(C)(C)C)c1 [2,6-Di-tert.-butyl-4-methyl phenol] | 0.0% | 
12 | Cc1c[nH]c(=O)[nH]c1=O [Thymine] | 0.0% | 
13 | Nc1ccc(S(=O)(=O)F)cc1 [Sulfanilyl fluoride] | 0.0% | 
14 | Nc1ccc(S(=O)(=O)[O-])cc1.O.[Na+] [Sulfanilic acid, sodium salt hydrate] | 0.0% | 

Further lines, with some results ahead:

Row | % Cross-Reactivity | Compound | further results
15 | 0.07% | Nc1ccc(S(=O)(=O)Nc2nccs2)cc1 [Sulfathiazole] | 
16 | 0.0% | Cc1nc(NS(=O)(=O)c2ccc(N)cc2)oc1C [N′-(4,5-Dimethyloxazol-2-yl) sulfanilamide] | 
17 | 0.0% | Cc1nnc(NS(=O)(=O)c2ccc(N)cc2)s1 [Sulfamethizole] | 
18 | 0.06% | COc1cc(NS(=O)(=O)c2ccc(N)cc2)nc(OC)n1 [Sulfadimethoxine] | 
19 | 0.66% | CC(=O)NS(=O)(=O)c1ccc(N)cc1 [Sulfacetamide] | 
20 | 0.0% | Cc1noc(NS(=O)(=O)c2ccc(N)cc2)c1C [Sulfisoxazole] | 
21 | 0.0% | Sulfasazine | 
22 | 100.0% | Cc1cc(C)nc(NS(=O)(=O)c2ccc(N)cc2)n1 [Sulfamethazine] | competition with sulfamethazine-HRP conjugate for antibody binding (competitive EIA at 0 µg/mL and 0.l µg/mL of sulfamethazine): competed effectively; 50% inhibition in binding (mid-region of the EIA standard curve, standards in swine plasma): around 0.l; % Binding Mean (sulfamethazine standard 0.016 µg/mL): 83.1%; % Binding Mean (sulfamethazine standard 0.031 µg/mL): 76.0%; % Binding Mean (sulfamethazine standard 0.063 µg/mL): 64.2%; % Binding Mean (sulfamethazine standard 0.125 µg/mL): 48.4%; % Binding Mean (sulfamethazine standard 0.25 µg/mL): 31.4%; % Binding Mean (sulfamethazine standard 0.5 µg/mL): 18.3%; % Binding Mean (sulfamethazine standard 1.0 µg/mL): 10.5%
23 | 0.34% | COc1cnc(NS(=O)(=O)c2ccc(N)cc2)nc1 [5-Methoxysulfadiazine] | 
24 | 0.0% | Nc1ccc(S(N)(=O)=O)cc1 [Sulfanilamide] | 
25 | 0.0% | Nc1ccc(S(=O)(=O)Nc2ncccn2)cc1 [Sulfadiazine] | 
26 | 0.0% | NS(=O)(=O)c1ccc(C(=O)O)cc1 [4-Carboxybenzenesulfonamide] | 
27 | 0.0% | CC(=O)Nc1ccc(S(=O)(=O)Nc2ccc([N+](=O)[O-])cc2)cc1 [Sulfanitran] | 
28 | 12% and 12.10% | Cc1ccnc(NS(=O)(=O)c2ccc(N)cc2)n1 [Sulfamerazine] | 
29 | 0.0% | Nc1ccc(S(=O)(=O)NC(=O)c2ccccc2)cc1 [Sulfabenzamide] | 
